In patent US10766893B2 (priority 2017, dated 2020):

Tests used:
Assay in all cases: biochemical
Assay type in all cases: biochemical
Settings in all cases: 15 nM tritium labelled cAMP, 1 hr at room temperature
PDE1A = PDE1A (Homo sapiens (Human), UniProt P54750)
Description: (§1) Table 1 lists the IC50 value for inhibition of PDE1 by the compounds of the invention. […] PDE1 assays are described in the Experimental Section.

PDE1B = PDE1B (Homo sapiens (Human), UniProt Q01064)
Description: as §1

PDE1C = PDE1C (Homo sapiens (Human), UniProt Q14123)
Description: as §1

PDE1B, sequence (Q01064 whole entry): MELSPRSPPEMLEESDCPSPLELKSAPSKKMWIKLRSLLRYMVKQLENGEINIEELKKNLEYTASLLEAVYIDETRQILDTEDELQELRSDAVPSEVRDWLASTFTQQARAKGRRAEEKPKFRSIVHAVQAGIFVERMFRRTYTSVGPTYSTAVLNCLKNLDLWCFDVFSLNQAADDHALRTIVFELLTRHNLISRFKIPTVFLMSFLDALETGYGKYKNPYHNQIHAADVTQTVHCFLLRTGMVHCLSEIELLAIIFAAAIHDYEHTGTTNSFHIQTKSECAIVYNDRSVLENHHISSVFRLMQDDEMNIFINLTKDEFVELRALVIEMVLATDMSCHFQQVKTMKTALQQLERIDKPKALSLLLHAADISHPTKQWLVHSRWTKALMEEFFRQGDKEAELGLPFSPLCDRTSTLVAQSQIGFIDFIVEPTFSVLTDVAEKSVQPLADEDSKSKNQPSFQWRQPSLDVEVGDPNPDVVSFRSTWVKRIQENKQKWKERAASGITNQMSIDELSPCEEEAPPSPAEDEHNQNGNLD
PDE1C, sequence (Q14123 whole entry): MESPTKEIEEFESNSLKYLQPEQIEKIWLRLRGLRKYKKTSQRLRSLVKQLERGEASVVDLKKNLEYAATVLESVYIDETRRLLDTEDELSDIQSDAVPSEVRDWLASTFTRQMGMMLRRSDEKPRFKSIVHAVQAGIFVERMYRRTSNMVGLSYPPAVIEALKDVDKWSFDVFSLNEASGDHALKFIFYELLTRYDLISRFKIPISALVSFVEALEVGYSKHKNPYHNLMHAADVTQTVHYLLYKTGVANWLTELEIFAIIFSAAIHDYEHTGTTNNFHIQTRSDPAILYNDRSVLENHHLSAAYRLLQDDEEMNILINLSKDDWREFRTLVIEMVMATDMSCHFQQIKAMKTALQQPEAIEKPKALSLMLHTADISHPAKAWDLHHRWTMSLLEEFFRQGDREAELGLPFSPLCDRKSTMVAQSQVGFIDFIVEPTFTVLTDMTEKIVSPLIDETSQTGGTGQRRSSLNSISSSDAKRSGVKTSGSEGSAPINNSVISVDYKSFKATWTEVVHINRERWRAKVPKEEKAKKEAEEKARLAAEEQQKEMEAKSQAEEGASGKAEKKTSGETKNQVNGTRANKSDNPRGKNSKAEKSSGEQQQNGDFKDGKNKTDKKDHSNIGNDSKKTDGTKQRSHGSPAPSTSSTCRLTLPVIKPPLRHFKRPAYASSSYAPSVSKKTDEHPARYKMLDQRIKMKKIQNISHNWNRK
PDE1A, sequence (P54750 whole entry): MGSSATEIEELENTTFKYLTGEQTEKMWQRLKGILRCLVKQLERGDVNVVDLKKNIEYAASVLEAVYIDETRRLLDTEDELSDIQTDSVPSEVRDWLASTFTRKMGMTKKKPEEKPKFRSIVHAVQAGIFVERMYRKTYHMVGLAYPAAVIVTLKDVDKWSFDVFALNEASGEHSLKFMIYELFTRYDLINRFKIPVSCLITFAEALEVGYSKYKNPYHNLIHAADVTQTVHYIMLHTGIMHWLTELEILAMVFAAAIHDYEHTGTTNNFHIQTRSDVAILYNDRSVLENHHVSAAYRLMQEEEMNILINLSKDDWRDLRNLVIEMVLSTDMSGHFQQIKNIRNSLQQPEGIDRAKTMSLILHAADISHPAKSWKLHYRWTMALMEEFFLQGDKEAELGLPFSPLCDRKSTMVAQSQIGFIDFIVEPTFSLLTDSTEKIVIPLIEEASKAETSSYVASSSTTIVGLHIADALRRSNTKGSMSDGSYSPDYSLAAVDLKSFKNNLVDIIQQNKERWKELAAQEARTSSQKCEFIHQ

CCOc1nnccc1-c1cc(NCc2cnn(C)c2)c2c(n1)c(C)nn2C(C)CC (single isomer, unassigned) [Example 6b, 5-(3-ethoxypyridazin-4-yl)-3-methyl-N-[(1-methylpyrazol-4-yl)methyl]-1-[1-methylpropyl]pyrazolo[4,3-b]pyridin-7-amine]
IC50 (PDE1A): 1.9 nM
IC50 (PDE1B): 0.36 nM
IC50 (PDE1C): 11 nM

COc1cnccc1-c1cc(NCc2cnn(C)c2)c2c(n1)c(C)nn2C(C)C [Example 29b, 1-isopropyl-5-(3-methoxy-4-pyridyl)-3-methyl-N-[(1-methylpyrazol-4-yl)methyl]pyrazolo[4,3-b]pyridin-7-amine]
IC50 (PDE1A): 32 nM
IC50 (PDE1B): 4.9 nM
IC50 (PDE1C): 44 nM

CCOc1nnccc1-c1cc(NCc2nccc(C)n2)c2c(n1)c(C)nn2C(C)C [Example 11b, 5-(3-ethoxypyridazin-4-yl)-1-isopropyl-3-methyl-N-[(4-methylpyrimidin-2-yl)methyl]pyrazolo[4,3-b]pyridin-7-amine]
IC50 (PDE1A): 38 nM
IC50 (PDE1B): 4.4 nM
IC50 (PDE1C): 160 nM

CCOc1ncccc1-c1cc(NCc2cccc3nsnc23)c2c(n1)c(C)nn2C(C)C [Example 2a, N-(2,1,3-benzothiadiazol-4-ylmethyl)-5-(2-ethoxy-3-pyridyl)-1-isopropyl-3-methyl-pyrazolo[4,3-b]pyridin-7-amine]
IC50 (PDE1A): 53 nM
IC50 (PDE1B): 3.4 nM
IC50 (PDE1C): 140 nM

CCOc1ncccc1-c1cc(NCc2nccc3nccn23)c2c(n1)c(C)nn2C(C)C [Example 16a, 5-(2-ethoxypyridin-3-yl)-N-(imidazo[1,2-c]pyrimidin-5-ylmethyl)-1-isopropyl-3-methyl-1H-pyrazolo[4,3-b]pyridin-7-amine]
IC50 (PDE1A): 35 nM
IC50 (PDE1B): 4 nM
IC50 (PDE1C): 44 nM

CCOc1nnccc1-c1cc(NCc2cccc3ocnc23)c2c(n1)c(C)nn2C(C)C [Example 13a, N-(1,3-benzoxazol-4-ylmethyl)-5-(3-ethoxypyridazin-4-yl)-1-isopropyl-3-methyl-pyrazolo[4,3-b]pyridin-7-amine]
IC50 (PDE1A): 39 nM
IC50 (PDE1B): 1.7 nM
IC50 (PDE1C): 93 nM

CCOc1nnccc1-c1cc(NCc2cnn(C)c2)c2c(n1)c(C)nn2C(C)CC (single isomer, unassigned) [Example 5b, 5-(3-ethoxypyridazin-4-yl)-3-methyl-N-[(1-methylpyrazol-4-yl)methyl]-1-[1-methylpropyl]pyrazolo[4,3-b]pyridin-7-amine]
IC50 (PDE1A): 25 nM
IC50 (PDE1B): 6.1 nM
IC50 (PDE1C): 102 nM

CCOc1cnccc1-c1cc(NCc2cc[nH]n2)c2c(n1)c(C)nn2C(C)C [Example 13b, 5-(3-ethoxy-4-pyridyl)-1-isopropyl-3-methyl-N-(1H-pyrazol-3-ylmethyl)pyrazolo[4,3-b]pyridin-7-amine]
IC50 (PDE1A): 24 nM
IC50 (PDE1B): 2.5 nM
IC50 (PDE1C): 56 nM

CCOc1cnccc1-c1cc(NCc2cccc(OC)n2)c2c(n1)c(C)nn2C(C)C [Example 25b, 5-(3-ethoxy-4-pyridyl)-1-isopropyl-N-[(6-methoxy-2-pyridyl)methyl]-3-methyl-pyrazolo[4,3-b]pyridin-7-amine]
IC50 (PDE1A): 17 nM
IC50 (PDE1B): 1.6 nM
IC50 (PDE1C): 53 nM

CCOc1cnccc1-c1cc(NCc2ccccn2)c2c(n1)c(C)nn2C(C)C [Example 15b, 5-(3-ethoxy-4-pyridyl)-1-isopropyl-3-methyl-N-(2-pyridylmethyl)pyrazolo[4,3-b]pyridin-7-amine]
IC50 (PDE1A): 17 nM
IC50 (PDE1B): 1.4 nM
IC50 (PDE1C): 55 nM

Cc1nn(C(C)C)c2c(NCc3cnn(C)c3)cc(-c3cccc4cn[nH]c34)nc12 [Example 39b, 5-(1H-indazol-7-yl)-1-isopropyl-3-methyl-N-[(1-methylpyrazol-4-yl)methyl]pyrazolo[4,3-b]pyridin-7-amine]
IC50 (PDE1A): 140 nM
IC50 (PDE1B): 24 nM
IC50 (PDE1C): 300 nM

CCOc1ncccc1-c1cc(NCc2ccc3oc(C)nc3c2)c2c(n1)c(C)nn2C(C)C [Example 12a, 5-(2-ethoxy-3-pyridyl)-1-isopropyl-3-methyl-N-[(2-methyl-1,3-benzoxazol-5-yl)methyl]pyrazolo[4,3-b]pyridin-7-amine]
IC50 (PDE1A): 8.7 nM
IC50 (PDE1B): 0.81 nM
IC50 (PDE1C): 31 nM

CCOc1ncccc1-c1cc(NCc2cccc3nc(C)nn23)c2c(n1)c(C)nn2C(C)C [Example 7a, 5-(2-ethoxy-3-pyridyl)-1-isopropyl-3-methyl-N-[(2-methyl-[1,2,4]triazolo[1,5-a]pyridin-5-yl)methyl]pyrazolo[4,3-b]pyridin-7-amine]
IC50 (PDE1A): 11 nM
IC50 (PDE1B): 0.93 nM
IC50 (PDE1C): 35 nM

CCOc1cnccc1-c1cc(NCc2cnc(C)s2)c2c(n1)c(C)nn2C(C)C [Example 21b, 5-(3-ethoxy-4-pyridyl)-1-isopropyl-3-methyl-N-[(2-methylthiazol-5-yl)methyl]pyrazolo[4,3-b]pyridin-7-amine]
IC50 (PDE1A): 5.6 nM
IC50 (PDE1B): 0.64 nM
IC50 (PDE1C): 14 nM

CCOc1ncccc1-c1cc(NCc2cccn3nccc23)c2c(n1)c(C)nn2C(C)C [Example 5a, 5-(2-ethoxy-3-pyridyl)-1-isopropyl-3-methyl-N-(pyrazolo[1,5-a]pyridin-4-ylmethyl)pyrazolo[4,3-b]pyridin-7-amine]
IC50 (PDE1A): 53 nM
IC50 (PDE1B): 7.1 nM
IC50 (PDE1C): 95 nM

CCOc1nnccc1-c1cc(NCc2nnc(C)o2)c2c(n1)c(C)nn2C(C)C [Example 8b, 5-(3-ethoxypyridazin-4-yl)-1-isopropyl-3-methyl-N-[(5-methyl-1,3,4-oxadiazol-2-yl)methyl]pyrazolo[4,3-b]pyridin-7-amine]
IC50 (PDE1A): 97 nM
IC50 (PDE1B): 14 nM
IC50 (PDE1C): 320 nM

Cc1nn(C(C)C)c2c(NCc3cnn(C)c3)cc(-c3cccc4cc[nH]c34)nc12 [Example 38b, 5-(1H-indol-7-yl)-1-isopropyl-3-methyl-N-[(1-methylpyrazol-4-yl)methyl]pyrazolo[4,3-b]pyridin-7-amine]
IC50 (PDE1A): 590 nM
IC50 (PDE1B): 100 nM
IC50 (PDE1C): 350 nM

CCOc1ncccc1-c1cc(NCc2cccn3cncc23)c2c(n1)c(C)nn2C(C)C [Example 8a, 5-(2-ethoxy-3-pyridyl)-N-(imidazo[1,5-a]pyridin-8-ylmethyl)-1-isopropyl-3-methyl-pyrazolo[4,3-b]pyridin-7-amine]
IC50 (PDE1A): 3.2 nM
IC50 (PDE1B): 0.18 nM
IC50 (PDE1C): 9.1 nM

CCOc1ncccc1-c1cc(NCc2cccn3ccnc23)c2c(n1)c(C)nn2C(C)C [Example 4a, 5-(2-ethoxy-3-pyridyl)-N-(imidazo[1,2-a]pyridin-8-ylmethyl)-1-isopropyl-3-methyl-pyrazolo[4,3-b]pyridin-7-amine]
IC50 (PDE1A): 6.6 nM
IC50 (PDE1B): 0.48 nM
IC50 (PDE1C): 22 nM

CCOc1nnccc1-c1cc(NCc2cnn(C)c2)c2c(n1)c(C)nn2C(C)C [Example 3b, 5-(3-ethoxypyridazin-4-yl)-1-isopropyl-3-methyl-N-[(1-methylpyrazol-4-yl)methyl]pyrazolo[4,3-b]pyridin-7-amine]
IC50 (PDE1A): 6.1 nM
IC50 (PDE1B): 1.1 nM
IC50 (PDE1C): 27 nM

CCOc1nnccc1-c1cc(NCc2ncccn2)c2c(n1)c(C)nn2C(C)C [Example 1b, 5-(3-ethoxypyridazin-4-yl)-1-isopropyl-3-methyl-N-(pyrimidin-2-ylmethyl)pyrazolo[4,3-b]pyridin-7-amine]
IC50 (PDE1A): 11 nM
IC50 (PDE1B): 1.3 nM
IC50 (PDE1C): 48 nM

CCOc1ncccc1-c1cc(NCc2cccc3ncnn23)c2c(n1)c(C)nn2C(C)C [Example 6a, 5-(2-ethoxy-3-pyridyl)-1-isopropyl-3-methyl-N-([1,2,4]triazolo[1,5-a]pyridin-5-ylmethyl)pyrazolo[4,3-b]pyridin-7-amine]
IC50 (PDE1A): 18 nM
IC50 (PDE1B): 1.4 nM
IC50 (PDE1C): 64 nM

COc1nnccc1-c1cc(NCc2cnn(C)c2)c2c(n1)c(C)nn2C(C)C [Example 2b, 1-isopropyl-5-(3-methoxypyridazin-4-yl)-3-methyl-N-[(1-methylpyrazol-4-yl)methyl]pyrazolo[4,3-b]pyridin-7-amine]
IC50 (PDE1A): 45 nM
IC50 (PDE1B): 8.1 nM
IC50 (PDE1C): 49 nM
